Measurements: paper PMC12023841, “Unlocking the Gates: A Novel Diagnostic Molecule for Quantifying Efflux Levels in Gram‐Positive Bacteria” (Advanced Healthcare Materials, 2025)
Converted amounts (≈) assume the structure as drawn. Like-named read-outs stand apart in the source and are kept apart here.

Assays:
[1] = test system: SA 1199 (Wild‐type, basal); assay: MIC, broth microdilution (CLSI); assay type: cell-based; details: Staphylococcus aureus
[2] = test system: Staphylococcus aureus ATCC 25923 (Reference, basal); assay: MIC, broth microdilution (CLSI); assay type: cell-based; details: ATCC25923
SA‐K1758 (∆norA) = assay: microbe, parasite or virus in culture; assay type: cell-based; details: Staphylococcus aureus
[3] = Solution‐state stability test in MH‐II broth; assay type: physicochemical; details: 512–1 µg mL^−1, 37 °C for a day, centrifuged
Experimental: Before accessing the minimal inhibitory concentration (MIC), each phenazinium derivative was subjected to a solution‐state stability test. For this experiment, each derivative was solubilized in DMSO to achieve a primary stock solution (20 mg mL^−1). This stock was further diluted in MilliQ to achieve a working stock solution (10 mg mL^−1). […] The tubes were placed in an incubator at 37 °C for a day and later centrifuged at 25 000 rpm for 25 min.

[4] = test system: SA 1199‐B (norA overexpressing); assay: microbe, parasite or virus in culture; assay type: cell-based, Staphylococcus aureus; details: Staphylococcus aureus
S. aureus strains = details: cited from earlier work

For `CCCCNc1ccc2nc3cc(NCCC)c(N)cc3[n+](CCC)c2c1` [5a1], which MIC [1] is on record?
Its MIC is 1 µg/mL.

What about the MIC [2] of the same molecule?
The MIC was 1 µg/mL.

And the MIC (SA‐K1758 (∆norA))?
The MIC was 0.5 µg/mL.

What about the “Solution state stability (concentration at which visible precipitation was observed)” value [3] of the same molecule?
Its value is “Visible precipitation was observed at 128 µg mL^−1 and beyond”.

And the MIC [4]?
Its MIC is 2 µg/mL.

Which results are given for `CCCCNc1ccc2nc3cc(NCCCC)c(N)cc3[n+](CCC)c2c1` [5a2]?
MIC [1]: 1 µg/mL; MIC [2]: 1 µg/mL; MIC (SA‐K1758 (∆norA)): 0.25 µg/mL; Solution state stability (concentration at which visible precipitation was observed) [3]: Visible precipitation was observed at 512 µg mL^−1 and beyond; MIC [4]: 2 µg/mL

Which results are given for `CCCCCCCCNc1cc2nc3ccc(NCCCC)cc3[n+](CCCCCCCC)c2cc1N` [5b3]?
MIC [1]: 32 µg/mL; MIC [2]: 32 µg/mL; MIC (SA‐K1758 (∆norA)): 32 µg/mL; Solution state stability (concentration at which visible precipitation was observed) [3]: Visible precipitation was observed at 128 µg mL^−1 and beyond

Which results are given for `CC[n+]1c(-c2ccccc2)c2cc(N)ccc2c2ccc(N)cc21` [EtBrCW, Ethidium bromide]?
Efflux detection method EtBrCW (S. aureus strains; strain ATCC25923, ref [4]): Negative; Efflux detection method EtBrCW (S. aureus strains; strain ATCC25923_EtBr, ref [4]): Positive (isolates were considered positive if they exhibited fluorescence at the highest EtBr concentration tested (> 2.5 mg/L)); Efflux detection method EtBrCW (S. aureus strains; strain BIOS-H1, ref [7]): Negative; Efflux detection method EtBrCW (S. aureus strains; strain BIOS-H2, ref [7]): Negative; Efflux detection method EtBrCW (S. aureus strains; strain BIOS-H3, ref [7]): Negative; Efflux detection method EtBrCW (S. aureus strains; strain BIOS-H5, ref [7]): Negative; Efflux detection method EtBrCW (S. aureus strains; strain BIOS-H6, ref [7]): Negative; Efflux detection method EtBrCW (S. aureus strains; strain BIOS-H12, ref [7]): Negative; Efflux detection method EtBrCW (S. aureus strains; strain BIOS-H13, ref [7]): Negative; Efflux detection method EtBrCW (S. aureus strains; strain BIOS-H17, ref [7]): Negative; Efflux detection method EtBrCW (S. aureus strains; strain BIOS-H20, ref [7]): Negative; Efflux detection method EtBrCW (S. aureus strains; strain BIOS-H21, ref [7]): Negative; Efflux detection method EtBrCW (S. aureus strains; strain BIOS-H22, ref [7]): Negative; Efflux detection method EtBrCW (S. aureus strains; strain BIOS-H25, ref [7]): Negative; Efflux detection method EtBrCW (S. aureus strains; strain BIOS-H28, ref [7]): Negative; Efflux detection method EtBrCW (S. aureus strains; strain BIOS-H29, ref [7]): Negative; Efflux detection method EtBrCW (S. aureus strains; strain BIOS-H30, ref [7]): Negative; Efflux detection method EtBrCW (S. aureus strains; strain BIOS-H32, ref [7]): Negative; Efflux detection method EtBrCW (S. aureus strains; strain BIOS-V21, ref [8]): Negative; Efflux detection method EtBrCW (S. aureus strains; strain BIOS-V31, ref [8]): Negative; Efflux detection method EtBrCW (S. aureus strains; strain BIOS-V60, ref [8]): Negative; Efflux detection method EtBrCW (S. aureus strains; strain BIOS-V61, ref [8]): Negative; Efflux detection method EtBrCW (S. aureus strains; strain BIOS-V62, ref [8]): Negative; Efflux detection method EtBrCW (S. aureus strains; strain BIOS-V74, ref [8]): Negative; Efflux detection method EtBrCW (S. aureus strains; strain BIOS-V75, ref [8]): Negative; Efflux detection method EtBrCW (S. aureus strains; strain BIOS-V85, ref [8]): Negative; Efflux detection method EtBrCW (S. aureus strains; strain BIOS-V118, ref [8]): Negative; Efflux detection method EtBrCW (S. aureus strains; strain BIOS-V128, ref [8]): Negative; Efflux detection method EtBrCW (S. aureus strains; strain BIOS-V147, ref [8]): Negative; Efflux detection method EtBrCW (S. aureus strains; strain BIOS-V151, ref [8]): Negative; Efflux detection method EtBrCW (S. aureus strains; strain BIOS-V156, ref [8]): Negative; Efflux detection method EtBrCW (S. aureus strains; strain BIOS-V157, ref [8]): Negative; Efflux detection method EtBrCW (S. aureus strains; strain BIOS-V158, ref [8]): Negative; Efflux detection method EtBrCW (S. aureus strains; strain BIOS-V203, ref [8]): Negative; Efflux detection method EtBrCW (S. aureus strains; strain BIOS-V245, ref [8]): Negative; Efflux detection method EtBrCW (S. aureus strains; strain BIOS-V250, ref [8]): Negative; Efflux detection method EtBrCW (S. aureus strains; strain BIOS-V257, ref [8]): Negative; Efflux detection method EtBrCW (S. aureus strains; strain BIOS-V279, ref [8]): Negative; Efflux detection method EtBrCW (S. aureus strains; strain BIOS-V295, ref [8]): Negative; Efflux detection method EtBrCW (S. aureus strains; strain SA-1199, ref [2]): Negative; Efflux detection method EtBrCW (S. aureus strains; strain SA-1199B, ref [2]): Positive (isolates were considered positive if they exhibited fluorescence at the highest EtBr concentration tested (> 2.5 mg/L)); Efflux detection method EtBrCW (S. aureus strains; strain SA-K1748, ref [3]): Positive (isolates were considered positive if they exhibited fluorescence at the highest EtBr concentration tested (> 2.5 mg/L)); Efflux detection method EtBrCW (S. aureus strains; strain SA-K1758, ref [2]): Negative; Efflux detection method EtBrCW (S. aureus strains; strain SM 1, ref [6]): Positive (isolates were considered positive if they exhibited fluorescence at the highest EtBr concentration tested (> 2.5 mg/L)); Efflux detection method EtBrCW (S. aureus strains; strain SM 2, ref [6]): Negative^* (Isolates marked with (*) displayed fluorescence at intermediate EtBr concentrations (1–2 mg/L)); Efflux detection method EtBrCW (S. aureus strains; strain SM 3, ref [6]): Negative^* (Isolates marked with (*) displayed fluorescence at intermediate EtBr concentrations (1–2 mg/L)); Efflux detection method EtBrCW (S. aureus strains; strain SM 4, ref [6]): Negative; Efflux detection method EtBrCW (S. aureus strains; strain SM 5, ref [6]): Negative; Efflux detection method EtBrCW (S. aureus strains; strain SM 6, ref [6]): Negative; Efflux detection method EtBrCW (S. aureus strains; strain SM 7, ref [6]): Negative; Efflux detection method EtBrCW (S. aureus strains; strain SM 8, ref [6]): Negative^* (Isolates marked with (*) displayed fluorescence at intermediate EtBr concentrations (1–2 mg/L))

Which MIC ([1]; SA 1199 (Wild‐type, basal), read-out: MIC) does the source give for `CCn1cc(C(=O)O)c(=O)c2cc(F)c(N3CCNCC3)cc21` [NOR, norfloxacin, reference compound] here?
Its MIC is 2 µg/mL (≈ 6.26 µM).

And the MIC [2]?
Its MIC is 2 µg/mL (≈ 6.26 µM).

And the MIC (SA‐K1758 (∆norA))?
The MIC was 0.25 µg/mL (≈ 0.783 µM).

And the MIC [4]?
The MIC was 32 µg/mL (≈ 100 µM).
